# Experiments:
# Assay type in all cases: in vivo
# Portulaca oleracea = test: Field trial, post-emergence, visual scoring; conditions: alone
# Method: (§1) The tests were conducted outdoors (plot trials, 10 m^2 per plot, 2 repetitions, spray application with 200-300 liters of water per hectare). Crops and broad-leaved weeds/weed grasses were sown under customary field conditions. In addition, a natural weed flora also appeared. Application was by the post-emergence method. The application rates of the herbicidally active compounds applied on their own or in combinations are likewise shown in the tables below. Evaluations were by visual scoring (using a 0-100% scale) after application by comparison of treated and untreated test variants.
# (§2) The abbreviations denote: • a.i.=active ingredient • E^C=expected value according to Colby (E^C=A+B−A×B100) • Δ=difference (%) of the measured value to the expected value (%) (measured value minus expected value)
# (§3) Evaluation: • measured value E is greater than E^C:→synergism (+Δ) • measured value E equals E^C:→additive effect • measured value E is smaller than E^C:→antagonism (−Δ)
# Cassia obtusifolia = test: Field trial, post-emergence, visual scoring; conditions: alone
# Method: as §1, §2, §3
# Setaria viridis = test: Field trial, post-emergence, visual scoring; conditions: alone
# Method: as §1, §2, §3
# Abutilon theophrasti = test: Field trial, post-emergence, visual scoring; conditions: Table 5-17, field, alone
# Method: as §1, §2, §3
# Sida spinosa = test: Field trial, post-emergence, visual scoring; conditions: alone, 10 g of a.i./ha
# Method: as §1, §2, §3
# Brachiaria platyphylla = test: Greenhouse trial, post-emergence, visual herbicidal effect; conditions: alone
# Method: (§4) The weed seeds were sown in pots (diameter 8 cm) with sandy loam soil and germinated under optimum conditions. The herbides were applied by the post-emergence method onto the pots with the cultures, at a spray volume of 300 I/ha. The herbicides were applied on their own and in combination. The trial was conducted in a greenhouse under optimum growth conditions. The herbicidal effects were assessed visually by comparison of untreated and treated plants. The percentages mean: 0%=no effects, 100%=the plants die off completely). The percentages are used to calculate interactions between individual treatments and combination treatment according to S. R. Colby, Weeds 15, pages 20 to 22 (1967).
# as §2, §3
# Bidens pilosa = test: as above; conditions: alone
# Method: as §4, §2, §3
# Amaranthus retroflexus = test: Field trial, post-emergence, visual scoring; conditions: Table 5-48, field, alone
# Method: as §1, §2, §3
# Ambrosia artemisiifolia = test: Greenhouse trial, post-emergence, visual herbicidal effect; conditions: Table 5-52, greenhouse, alone, 4 g of a.i./ha
# Method: as §4, §2, §3
# Polygunum convolvulus = test: Field trial, post-emergence, visual scoring; conditions: Table 5-53, field, alone
# Method: as §1, §2, §3
# Lolium multiflorum = test: Field trial, post-emergence, visual scoring; conditions: alone, 25 g of a.i./ha
# Method: as §1, §2, §3
# Xanthium strumarium = test: Greenhouse trial, post-emergence, visual herbicidal effect; conditions: Table 5-56, greenhouse, alone, 1 g of a.i./ha
# Method: as §4, §2, §3
# Galium aparine = test: Field trial, post-emergence, visual scoring; conditions: alone
# Method: as §1, §2, §3
# Centaurea cyanis [1] = test: Field trial, post-emergence, visual scoring; conditions: Table 5-59, field, alone
# Method: as §1, §2, §3
# Euphorbia heterophylla = test: Field trial, post-emergence, visual scoring
# Method: as §1, §2, §3
# Alopecurus myosuroides = test: Field trial, post-emergence, visual scoring; conditions: Table 5-60, field, alone
# Method: as §1, §2, §3
# Papaver rhoeas = test: Greenhouse trial, post-emergence, visual herbicidal effect; conditions: alone
# Method: as §4, §2, §3
# Polygonum convolvulus = test: as above; conditions: alone
# Method: as §4, §2, §3
# Veronica hederifolia [2] = test: as above; conditions: Table 5-89, greenhouse, alone
# Method: as §4, §2, §3
# [3] = tested on: broad-leaved weeds/weed grasses; test: Field trial, post-emergence, visual scoring (species not listed above); conditions: dosage 210 g of a.i./ha
# Method: as §1, §2, §3
# Veronica hederifolia [4] = test: Field trial, post-emergence, visual scoring; conditions: alone, 210 g of a.i./ha
# Method: as §1, §2, §3
# Phalaris minor = test: Greenhouse trial, post-emergence, visual herbicidal effect; conditions: Table 5-03, greenhouse, alone, 25 g of a.i./ha
# Method: as §4, §2, §3
# Centaurea cyanis [5] = test: as above; conditions: alone
# Method: as §4, §2, §3
# Viola tricolor = test: as above; conditions: alone
# Method: as §4, §2, §3
# Avena fatua = test: as above; conditions: alone
# Method: as §4, §2, §3
smiles,measurement,setting,value
CCCn1nnnc1NC(=O)c1ccc(C(F)(F)F)c(S(C)(=O)=O)c1C [A1-9],Activity [%] against Portulaca oleracea,"Portulaca oleracea; Table 5-13, field, 20 g of a.i./ha",43%
same,Activity [%] against Portulaca oleracea,"Portulaca oleracea; Table 5-14, field, 20 g of a.i./ha",43%
same,Activity [%] against Portulaca oleracea,"Portulaca oleracea; Table 5-15, field, 20 g of a.i./ha",43%
same,Activity [%] against Portulaca oleracea,"Portulaca oleracea; Table 5-16, field, 20 g of a.i./ha",43%
same,Activity [%] against Portulaca oleracea,"Portulaca oleracea; Table 5-18, field, 20 g of a.i./ha",43%
same,Activity [%] against Portulaca oleracea,"Portulaca oleracea; Table 5-19, field, 20 g of a.i./ha",43%
same,Activity [%] against Portulaca oleracea,"Portulaca oleracea; Table 5-20, field, 20 g of a.i./ha",43%
same,Activity [%] against Portulaca oleracea,"Portulaca oleracea; Table 5-22, field, 10 g of a.i./ha",38%
same,Activity [%] against Cassia obtusifolia,"Cassia obtusifolia; Table 5-12, field, 20 g of a.i./ha",0%
same,Activity [%] against Cassia obtusifolia,"Cassia obtusifolia; Table 5-24, field, 20 g of a.i./ha",0%
same,Activity [%] against Cassia obtusifolia,"Cassia obtusifolia; Table 5-25, field, 25 g of a.i./ha",65%
same,Activity [%] against Setaria viridis,"Setaria viridis; Table 5-23, field, 10 g of a.i./ha",15%
same,Activity [%] against Setaria viridis,"Setaria viridis; Table 5-26, field, 25 g of a.i./ha",7%
same,Activity [%] against Abutilon theophrasti,Abutilon theophrasti; 20 g of a.i./ha,78%
same,Activity [%] against Sida spinosa,"Sida spinosa; Table 5-10, field",60%
same,Activity [%] against Sida spinosa,"Sida spinosa; Table 5-11, field",60%
same,Activity [%] against Sida spinosa,"Sida spinosa; Table 5-21, field",60%
CCc1c(C(=O)Nc2nnnn2C)ccc(Cl)c1SC [A1-36],Activity [%] against Brachiaria platyphylla,"Brachiaria platyphylla; Table 5-45, greenhouse, 2 g of a.i./ha",25%
same,Activity [%] against Bidens pilosa,"Bidens pilosa; Table 5-46, greenhouse, 2 g of a.i./ha",45%
same,Activity [%] against Bidens pilosa,"Bidens pilosa; Table 5-47, greenhouse, 4 g of a.i./ha",30%
same,Activity [%] against Amaranthus retroflexus,Amaranthus retroflexus; 50 g of a.i./ha,0%
Cc1ccc(C(=O)Nc2nnnn2C)c(Cl)c1S(C)(=O)=O [A1-49],Activity [%] against Ambrosia artemisiifolia,Ambrosia artemisiifolia,80%
same,Activity [%] against Polygunum convolvulus,Polygunum convolvulus; 25 g of a.i./ha,35%
same,Activity [%] against Lolium multiflorum,"Lolium multiflorum; Table 5-54, field",40%
COCc1c(S(C)(=O)=O)ccc(C(=O)Nc2nnnn2C)c1Cl [A1-60],Activity [%] against Brachiaria platyphylla,"Brachiaria platyphylla; Table 5-55, greenhouse, 1 g of a.i./ha",0%
same,Activity [%] against Brachiaria platyphylla,"Brachiaria platyphylla; Table 5-57, greenhouse, 2 g of a.i./ha",40%
same,Activity [%] against Xanthium strumarium,Xanthium strumarium,25%
same,Activity [%] against Galium aparine,"Galium aparine; Table 5-61, field, 25 g of a.i./ha",30%
same,Activity [%] against Galium aparine,"Galium aparine; Table 5-62, field, 25 g of a.i./ha",73%
same,Activity [%] against Centaurea cyanis,Centaurea cyanis [1]; 25 g of a.i./ha,45%
same,Activity [%] against Euphorbia heterophylla,"Euphorbia heterophylla; Table 5-63, field, alone, 25 g of a.i./ha",30%
same,Activity [%] against Lolium multiflorum,"Lolium multiflorum; Table 5-58, field",15%
same,Activity [%] against Alopecurus myosuroides,Alopecurus myosuroides; 25 g of a.i./ha,15%
Cn1nnnc1NC(=O)c1ccc(S(C)(=O)=O)c(OCC2CC2)c1Cl [A1-74],Activity [%] against Papaver rhoeas,"Papaver rhoeas; Table 5-86, greenhouse, 3 g of a.i./ha",30%
same,Activity [%] against Papaver rhoeas,"Papaver rhoeas; Table 5-87, greenhouse, 3 g of a.i./ha",40%
same,Activity [%] against Polygonum convolvulus,"Polygonum convolvulus; Table 5-88, greenhouse, 3 g of a.i./ha",0%
same,Activity [%] against Veronica hederifolia,Veronica hederifolia [2]; 3 g of a.i./ha,40%
CCNc1nc(Cl)nc(NC(C)C)n1 [atrazine],Activity [%] against Portulaca oleracea,"Portulaca oleracea; Table 5-13, field, 250 g of a.i./ha",25%
same,Activity [%] against Amaranthus retroflexus,Amaranthus retroflexus; 560 g of a.i./ha,60%
same,Activity [%] against Euphorbia heterophylla,"Euphorbia heterophylla; Field, dosage 1000 g of a.i./ha",55%
same,Activity [%] against Euphorbia heterophylla,"Euphorbia heterophylla; Table 5-51, field, alone, 1000 g of a.i./ha",49%
same,Activity [%] against Euphorbia heterophylla,"Euphorbia heterophylla; Table 5-63, field, alone, 1000 g of a.i./ha",49%
same,Activity [%] against Euphorbia heterophylla,"Euphorbia heterophylla; Table 5-85, field, alone, 1000 g of a.i./ha",49%
N#Cc1cc(Br)c(O)c(Br)c1 [bromoxynil],Activity [%] against Stellaria media,[3]; Table 5-114,10%
same,Activity [%] against Stellaria media,[3]; Table 5-116,5%
same,Activity [%] against Polygunum convolvulus,Polygunum convolvulus; 210 g of a.i./ha,30%
same,Activity [%] against Galium aparine,"Galium aparine; Table 5-04, field, 210 g of a.i./ha",13%
same,Activity [%] against Galium aparine,"Galium aparine; Table 5-62, field, 210 g of a.i./ha",13%
same,Activity [%] against Galium aparine,"Galium aparine; Table 5-92, field, 210 g of a.i./ha",25%
same,Activity [%] against Veronica hederifolia,"Veronica hederifolia [4]; Table 5-66, field",5%
same,Activity [%] against Veronica hederifolia,"Veronica hederifolia [4]; Table 5-74, field",5%
same,Activity [%] against Veronica hederifolia,"Veronica hederifolia [4]; Table 5-76, field",0%
same,Activity [%] against Veronica hederifolia,"Veronica hederifolia [4]; Table 5-79, field",5%
same,Activity [%] against Cassia obtusifolia,"Cassia obtusifolia; Table 5-25, field, 210 g of a.i./ha",10%
COC[C@H](C)N(C(=O)CCl)c1c(C)csc1C [dimethenamide-P],Activity [%] against Abutilon theophrasti,Abutilon theophrasti; 500 g of a.i./ha,25%
CCOC(=O)[C@@H](C)Oc1ccc(Oc2nc3ccc(Cl)cc3o2)cc1 [fenoxaprop-P-ethyl],Activity [%] against Phalaris minor,Phalaris minor,15%
same,Activity [%] against Papaver rhoeas,"Papaver rhoeas; Table 5-06, greenhouse, 12.5 g of a.i./ha",20%
same,Activity [%] against Polygonum convolvulus,"Polygonum convolvulus; Table 5-08, greenhouse, 25 g of a.i./ha",0%
same,Activity [%] against Centaurea cyanis,"Centaurea cyanis [5]; Table 5-50, greenhouse, 25 g of a.i./ha",0%
same,Activity [%] against Viola tricolor,"Viola tricolor; Table 5-02, greenhouse, 25 g of a.i./ha",0%
same,Activity [%] against Viola tricolor,"Viola tricolor; Table 5-09, greenhouse, 12.5 g of a.i./ha",15%
same,Activity [%] against Avena fatua,"Avena fatua; Table 5-01, greenhouse, 25 g of a.i./ha",0%
same,Activity [%] against Avena fatua,"Avena fatua; Table 5-05, greenhouse, 12.5 g of a.i./ha",0%
same,Activity [%] against Avena fatua,"Avena fatua; Table 5-07, greenhouse, 12.5 g of a.i./ha",0%
same,Activity [%] against Avena fatua,"Avena fatua; Table 5-49, greenhouse, 25 g of a.i./ha",0%
same,Activity [%] against Alopecurus myosuroides,Alopecurus myosuroides; 83 g of a.i./ha,30%
CC(C)N(C(=O)COc1nnc(C(F)(F)F)s1)c1ccc(F)cc1 [flufenacet],Activity [%] against Centaurea cyanis,Centaurea cyanis [1]; 240 g of a.i./ha,0%
CCc1cc(C)cc(CC)c1-c1c(OC(=O)C(C)(C)C)n2n(c1=O)CCOCC2 [pinoxaden],Activity [%] against Papaver rhoeas,"Papaver rhoeas; Table 5-39, greenhouse, 5 g of a.i./ha",0%
same,Activity [%] against Papaver rhoeas,"Papaver rhoeas; Table 5-41, greenhouse, 10 g of a.i./ha",10%
same,Activity [%] against Papaver rhoeas,"Papaver rhoeas; Table 5-86, greenhouse, 10 g of a.i./ha",0%
same,Activity [%] against Papaver rhoeas,"Papaver rhoeas; Table 5-87, greenhouse, 10 g of a.i./ha",50%
same,Activity [%] against Polygonum convolvulus,"Polygonum convolvulus; Table 5-88, greenhouse, 10 g of a.i./ha",0%
same,Activity [%] against Veronica hederifolia,Veronica hederifolia [2]; 10 g of a.i./ha,20%
same,Activity [%] against Centaurea cyanis,"Centaurea cyanis [5]; Table 5-38, greenhouse, 5 g of a.i./ha",0%
same,Activity [%] against Centaurea cyanis,"Centaurea cyanis [5]; Table 5-40, greenhouse, 5 g of a.i./ha",15%
same,Activity [%] against Viola tricolor,"Viola tricolor; Table 5-42, greenhouse, 10 g of a.i./ha",0%

# Reference: US9867376B2, “Herbicidal compositions comprising N-tetrazol-5-yl)- or N-(triazol-5-yl)arylcarboxamides” (priority 2012, dated 2018)
